Test results: patent US20110306606A1, “NOVEL 2,6-SUBSTITUTED-3-NITROPYRIDINE DERIVATIVE, METHOD FOR PREPARING SAME, AND PHARMACEUTICAL COMPOSITION INCLUDING SAME” (priority 2008, published 2011)

Tested on: Osteoblasts (Calvarial cells)
Experiment: not given
Details: ICR, mouse, 72 h, 1 μM

| SMILES | Cell viability (%) Calvarial cell |
| --- | --- |
| CNc1ccc([N+](=O)[O-])c(Nc2ccc(C)cc2)n1 [Compound 1, 2-(4-methylphenylamino)-6-(methylamino)-3-nitropyridine] | 106% |
| Cc1ccc(Nc2nc(NC(C)C)ccc2[N+](=O)[O-])cc1 [Compound 2, 2-(4-methylphenylamino)-6-(isopropylamino)-3-nitropyridine] | 104% |
| Cc1ccc(Nc2nc(NCC(C)C)ccc2[N+](=O)[O-])cc1 [Compound 3, 2-(4-methylphenylamino)-6-(isobutylamino)-3-nitropyridine] | 102% |
| Cc1ccc(Nc2nc(N3CCC(O)CC3)ccc2[N+](=O)[O-])cc1 [Compound 5, 2-(4-methylphenylamino)-6-(4-hydroxypiperidino)-3-nitropyridine] | 96% |
| Cc1ccc(Nc2nc(N3CCN(C)CC3)ccc2[N+](=O)[O-])cc1 [Compound 11, 2-(4-methylphenylamino)-6-(4-methylpiperazin-1-yl)-3-nitropyridine] | 103% |
| CNc1ccc([N+](=O)[O-])c(Nc2ccc(OC)cc2)n1 [Compound 15, 2-(4-methoxyphenylamino)-6-(methylamino)-3-nitropyridine] | 100% |
| COc1ccc(Nc2nc(NCC(C)C)ccc2[N+](=O)[O-])cc1 [Compound 17, 2-(4-methoxyphenylamino)-6-(isobutylamino)-3-nitropyridine] | 96% |
| COc1ccc(Nc2nc(N3CCC(O)CC3)ccc2[N+](=O)[O-])cc1 [Compound 19, 2-(4-methoxyphenylamino)-6-(4-hydroxypiperidino)-3-nitropyridine] | 94% |
| COc1ccc(Nc2nc(NC(C)(C)C)ccc2[N+](=O)[O-])cc1 [Compound 23, 2-(4-methoxyphenylamino)-6-(t-butylamino)-3-nitropyridine] | 90% |
| COc1ccc(Nc2nc(N3CCN(C)CC3)ccc2[N+](=O)[O-])cc1 [Compound 26, 2-(4-methoxyphenylamino)-6-(4-methylpiperazin-1-yl)-3-nitropyridine] | 90% |
| COc1ccc(Nc2nc(N3CCNCC3)ccc2[N+](=O)[O-])cc1 [Compound 27, 2-(4-methoxyphenylamino)-6-(piperazin-1-yl)-3-nitropyridine] | 97% |
| COc1ccc(Nc2nc(N3CCOCC3)ccc2[N+](=O)[O-])cc1 [Compound 29, 2-(4-methoxyphenylamino)-6-morpholino-3-nitropyridine] | 93% |
| CNc1ccc([N+](=O)[O-])c(Nc2ccc(C(C)(C)C)cc2)n1 [Compound 30, 2-[4-(t-butyl)phenylamino]-6-(methylamino)-3-nitropyridine] | 90% |
| CC(C)CNc1ccc([N+](=O)[O-])c(Nc2ccc(C(C)(C)C)cc2)n1 [Compound 32, 2-[4-(t-butyl)phenylamino]-6-(isobutylamino)-3-nitropyridine] | 91% |
| CC(C)(C)c1ccc(Nc2nc(N3CCC(O)CC3)ccc2[N+](=O)[O-])cc1 [Compound 34, 2-[4-(t-butyl)phenylamino]-6-(4-hydroxypiperidino)-3-nitropyridine] | 97% |
| CC(C)c1nccn1-c1ccc([N+](=O)[O-])c(Nc2ccc(C(C)(C)C)cc2)n1 [Compound 36, 2-[4-(t-butyl)phenylamino]-6-[(2-isopropyl)imidazol-1-yl]-3-nitropyridine] | 118% |
| CC(C)(C)c1ccc(Nc2nc(NCc3cccnc3)ccc2[N+](=O)[O-])cc1 [Compound 37, 2-[4-(t-butyl)phenylamino]-6-[(3-pyridyl)methylamino]-3-nitropyridine] | 104% |
| CC(C)(C)c1ccc(Nc2nc(NCc3ccncc3)ccc2[N+](=O)[O-])cc1 [Compound 38, 2-[4-(t-butyl)phenylamino]-6-[(4-pyridyl)methylamino]-3-nitropyridine] | 96% |
| CN1CCN(c2ccc([N+](=O)[O-])c(Nc3ccc(C(C)(C)C)cc3)n2)CC1 [Compound 41, 2-[4-(t-butyl)phenylamino]-6-(4-methylpiperazin-1-yl)-3-nitropyridine] | 85% |
| CC(C)(C)c1ccc(Nc2nc(N3CCOCC3)ccc2[N+](=O)[O-])cc1 [Compound 44, 2-[4-(t-butyl)phenylamino]-6-morpholino-3-nitropyridine] | 101% |
| CC(C)CNc1ccc([N+](=O)[O-])c(Nc2ccc(C#N)cc2)n1 [Compound 46, 2-(4-cyanophenylamino)-6-(isobutylamino)-3-nitropyridine] | 100% |
| Nc1ccc(Nc2nc(N3CCC(O)CC3)ccc2[N+](=O)[O-])cc1 [Compound 61, 2-[4-(amino)phenylamino]-6-(4-hydroxypiperidino)-3-nitropyridine] | 102% |
| Nc1ccc(Nc2nc(N3CCNCC3)ccc2[N+](=O)[O-])cc1 [Compound 62, 2-[4-(amino)phenylamino]-6-(piperazin-1-yl)-3-nitropyridine] | 103% |
| CN1CCN(c2ccc([N+](=O)[O-])c(Nc3ccc(N)cc3)n2)CC1 [Compound 63, 2-[4-(amino)phenylamino]-6-(4-methylpiperazin-1-yl)-3-nitropyridine] | 104% |
| Nc1ccc(Nc2nc(N3CCC(N)CC3)ccc2[N+](=O)[O-])cc1 [Compound 65, 2-[4-(amino)phenylamino]-6-(4-aminopiperidino)-3-nitropyridine] | 102% |
| Nc1ccc(Nc2nc(NCCCn3ccnc3)ccc2[N+](=O)[O-])cc1 [Compound 67, 2-[4-(amino)phenylamino]-6-[(3-imidazol-1-yl)propylamino]-3-nitropyridine] | 111% |
| CNc1ccc([N+](=O)[O-])c(Nc2cccc(N)c2)n1 [Compound 70, 2-[3-(amino)phenylamino]-6-(methylamino)-3-nitropyridine] | 105% |

Tested on: Osteoblasts (Calvarial cells)
Experiment: Cytotoxicity test (MTT)
Details: 1 μM compound, 72 hours, in comparison with vehicle control

| SMILES | Cell viability (%) Calvarial cell |
| --- | --- |
| O=C(O)C1CCN(c2ccc(Nc3nc(NCc4ccncc4)ccc3[N+](=O)[O-])cc2F)CC1 [Compound 322, 2-{[3-fluoro-4-(4-carboxylicpiperidino)]phenylamino}-6-[(4-pyridyl)methylamino]-3-nitropyridine] | 106% |
| O=C(O)C1CCN(c2ccc(Nc3nc(NCCCn4ccnc4)ccc3[N+](=O)[O-])cc2F)CC1 [Compound 323, 2-{[3-fluoro-4-(4-carboxylicpiperidino)]phenylamino}-6-[(3-imidazol-1-yl)propylamino]-3-nitropyridine] | 105% |
| O=C(O)C1CCN(c2ccc(Nc3nc(NCCN4CCOCC4)ccc3[N+](=O)[O-])cc2F)CC1 [Compound 324, 2-{[3-fluoro-4-(4-carboxylicpiperidino)]phenylamino}-6-[2-(morpholin-1-yl)ethylamino]-3-nitropyridine] | 82% |
| O=C(O)C1CCN(c2ccc(Nc3nc(NCCCN4CCOCC4)ccc3[N+](=O)[O-])cc2F)CC1 [Compound 325, 2-{[3-fluoro-4-(4-carboxylicpiperidino)]phenylamino}-6-[(3-morpholin-1-yl)propylamino]-3-nitropyridine] | 106% |
